Experimental data from patent publication US20230266307A1, “BIOINFORMATICS” (University of Helsinki, priority 2020, published 2023).
No end group written: not given here.

Tests used:
ccRCC PDO = assay: killing assay with peptide-pulsed CD8+ T cells on ccRCC patient-derived organoids; type: cell-based, human
Excerpt: We focused our analysis on ccRCC samples. We used transcriptomics levels to select putative tumour antigens using PBMC and healthy kidney tissue as reference sets. Next, PBMCs from healthy volunteers were pulsed with the selected peptides, and CD8+ T cells isolated from those cells were used in the assay.
Finally, we sought to investigate the recall T cells response in the ccRCC patient. To this end, unfractionated PBMCs derived from the patient were in vitro stimulated with the peptide EVAQPGPSNR whereas unstimulated PBMCs were adopted as control. The derived CD8+T cells were then added to the ccRCC PDO showing about a 7% increase in killing activity compared to the control group.

JY cells = assay: in vitro killing assay, real time cytolysis of JY cells by peptide-pulsed CD8+ T cells; type: cell-based, human; conditions: for specific cytolysis: CD8+ T cells from HLA-matched PBMCs pulsed with the peptide, coculture with JY cells
Description: Next, in order to determine the role of the peptides identified, a gene ontology (GO) term enrichment analysis was performed on our list of 9mer binder source proteins. We observed an enrichment in nuclear and intracellular proteins, mainly those interacting with DNA, RNA or involved in catabolic activity. […] To account for nonspecific cytotoxicity due to the effector cells per se, unstimulated PBMCs were used as a control. Real time cytolysis was then monitored.

B16-OVA cells = assay: intratumoral PeptiCRAd treatment of established B16-OVA tumors; type: in vivo, C57BL/6J mice; conditions: B16OVA
Description: (§1) A: Scheme of the animal experiment: 4 groups of C57BL mice were formed for each tumor cell line to be tested. Mice were subcutaneously injected either with B16-OVA or B16F10 cells at day 0. Once the tumor was palpable, mice were treated with saline solution (Mock group), uncoated adenovirus (Uncoated Virus group), adenovirus coated with pool of viral peptides homologous to TRP2 (Viral PeptiCRAd, VPC) or adenovirus coated with TRP2 peptide (TRP2 PeptiCRAd, TPC).
(§2) All PeptiCRAd complexes described in this work were prepared by mixing Adenoviruses and polyK-tailed peptides according to the following protocol: 1×10^9 vp(viral particles) were mixed with 20 ug poly-K tailed peptides (resuspended in water); after vortexing, the mixture was incubated at room temperature for 15 min; PBS was added, after the incubation, up to the injection volume (50 uL/mouse), successively, the solution was vortexed again and used for assays or animal injections. For the TRP2-PeptiCRAd, 1×10^9 vp were mixed with 20ug of 6K-TRP2180-188 peptide, while the Viral-PeptiCRAd was prepared using 1×10^9 vp mixed with 5 ug of each viral 6K-peptide homologous for […]. […]
(§3) Tumor growth was followed with a digital caliper measuring two dimensions of the tumor. Successively, the volume was mathematically calculated according to the following formula: […]

B16F10 cells = assay: intratumoral PeptiCRAd treatment of established B16F10 tumors; type: in vivo, C57BL/6J mice
Description: as §1, §2, §3

[1] = molecular target: HLA-I complexes of the human B-cell lymphoblastoid cell line JY (human); assay: cell-based or functional assay

## EVAQPGPSNR (HSPG2 gene) [peptide from ccRCC organoids, gene name HSPG2]
ccRCC PDO; CD8+ T cells from PBMCs of healthy volunteers pulsed with the peptide, ccRCC samples
  specific cytolysis: about 10%
ccRCC PDO; CD8+ T cells from the ccRCC patient's PBMCs stimulated with the peptide, added to ccRCC PDO, control unstimulated PBMCs
  increase in killing activity compared to the control group: ~7%

## ILDKKVEKV [HLA-I peptide from JY cells, gene name HSP90AB3P]
JY cells
  specific cytolysis: 15%
JY cells; JY cells, CD8+ T cell-dependent killing
  specific cytolysis, comparison among the tested peptides: higher percentage of specific cytolysis

## TRP2-PeptiCRAd: adenovirus coated with 6K-TRP2180-188 peptide (KKKKKKSVYDFFVWL; also: coated on adenovirus; UniProt P29812 180-188, looked up, fragment)
B16-OVA cells; intratumoral, compared to saline buffer or uncoated virus
  tumor progression: significantly reduced the tumor progression
B16-OVA cells; tumor volume below the median at endpoint
  number of responders: significantly higher number of responders
B16F10 cells; B16F10, intratumoral, compared to saline buffer or uncoated virus
  tumor progression: significantly reduced the tumor progression
B16F10 cells; B16F10, tumor volume below the median at endpoint
  number of responders: significantly higher number of responders

## QLVDIIEKV [HLA-I peptide from JY cells, gene name PSME3]
JY cells
  specific cytolysis: about 10%

## KVLEYVIKV [HLA-I peptide from JY cells, gene name MAGEA1]
JY cells
  specific cytolysis: about 10%

B1: … (gene name MAGEA1) (peptide)
peptide: KVLEYVIKV
[1]
  specific cytolysis of JY cells by CD8+ T cells pulsed with the peptide: 10%

B2: … (gene name HSP90AB3P) (peptide)
peptide: ILDKKVEKV
[1]
  specific cytolysis of JY cells by CD8+ T cells pulsed with the peptide: 15%

B3: … (gene name PSME3) (peptide)
peptide: QLVDIIEKV
modifications: not fully specified
[1]
  specific cytolysis of JY cells by CD8+ T cells pulsed with the peptide: 10%
